These are literature values, as cited in patent publication US11866789B2, “Targeted therapies for cancer” (THE TRANSLATIONAL GENOMICS RESEARCH INSTITUTE, priority 2015, dated 2024).

Data set [1] relates to advanced biliary tract cancer or hepatobiliary cancer. Conditions: 17 patients evaluated.
Data set [2] relates to Cell line models expressing NRG1 fusions. To be noted: See Reference 29.

Consider `CS(=O)(=O)CCNCc1ccc(-c2ccc3ncnc(Nc4ccc(OCc5cccc(F)c5)c(Cl)c4)c3c2)o1` [Lapatinib], for which the objective response entry in data set [1] is reported as “no objective response”. The “sensitivity of NRG1 fusion cell line models” value in data set [2] is “increased sensitivity”.
